Key:
Melanocortin receptor 4 [1] = molecular target: T1, Melanocortin receptor 4 (Homo sapiens, UniProt P32245); test: cAMP accumulation in HEK cells transfected with human Melanocortin 4 receptor (hMC4R) with respect to alpha-MSH; assay type: functional, cell-based; details: HEK293
Melanocortin receptor 4 [2] = molecular target: T1, Melanocortin receptor 4; test: Agonistic activity measured as […] cAMP accumulation in HEK cells expressing human Melanocortin 4 receptor (hMC4R); assay type: functional, cell-based, HEK293
Melanocortin receptor 4 [3] = molecular target: T1, Melanocortin receptor 4; test: cAMP accumulation in HEK cells transfected with human melanocortin 4 receptor (hMC4R) with respect to alpha-MSH; assay type: functional, cell-based; details: HEK293
Melanocortin receptor 5 = Melanocortin receptor 5 (Homo sapiens, UniProt P33032); test: In vitro cAMP accumulation in HEK cells transfected with human Melanocortin 5 receptor (hMC5R); assay type: functional, cell-based, HEK293
Melanocortin receptor 3 = Melanocortin receptor 3 (Homo sapiens, UniProt P41968); test: In vitro cAMP accumulation in HEK cells transfected with human Melanocortin 3 receptor (hMC3R); assay type: functional, cell-based, HEK293
[4] = molecular target: Melanocyte-stimulating hormone receptor (Homo sapiens, UniProt Q01726); test: In vitro cAMP accumulation in HEK cells transfected with human Melanocortin 1 receptor (hMC1R); assay type: functional, cell-based, HEK293
Melanocortin receptor 4 [5] = molecular target: Melanocortin receptor 4 (Mus musculus, UniProt P56450); test: In vitro cAMP accumulation in Y1 cells transfected with mouse Melanocortin 4 receptor (mMC4R); assay type: functional, cell-based
[6] = molecular target: Adrenocorticotropic hormone receptor (Mus musculus, UniProt Q64326); test: In vitro cAMP accumulation in Y1 cells transfected with mouse Melanocortin 2 receptor (mMC2R); assay type: functional, cell-based
Chain of Adrenocorticotropic hormone receptor (Q64326 whole entry): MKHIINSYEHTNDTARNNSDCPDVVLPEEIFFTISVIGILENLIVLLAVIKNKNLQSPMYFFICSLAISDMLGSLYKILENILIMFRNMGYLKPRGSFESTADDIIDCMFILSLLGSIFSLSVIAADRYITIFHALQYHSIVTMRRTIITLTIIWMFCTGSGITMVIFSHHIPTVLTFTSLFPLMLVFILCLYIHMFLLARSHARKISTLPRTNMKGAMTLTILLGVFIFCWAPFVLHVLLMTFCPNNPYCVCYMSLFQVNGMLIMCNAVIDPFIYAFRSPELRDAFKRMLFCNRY

Chain of Melanocortin receptor 4 (Mus musculus, UniProt P56450) (P56450 whole entry): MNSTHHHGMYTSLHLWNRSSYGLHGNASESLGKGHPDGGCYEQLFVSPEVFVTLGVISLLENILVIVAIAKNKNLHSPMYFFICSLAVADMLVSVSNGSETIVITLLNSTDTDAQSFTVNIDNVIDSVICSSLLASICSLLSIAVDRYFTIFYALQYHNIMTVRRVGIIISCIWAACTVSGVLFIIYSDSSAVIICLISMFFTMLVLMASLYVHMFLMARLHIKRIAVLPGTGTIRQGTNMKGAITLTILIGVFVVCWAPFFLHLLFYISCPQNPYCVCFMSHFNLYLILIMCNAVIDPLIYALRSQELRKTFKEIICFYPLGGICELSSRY
T1 sequence (P32245 whole entry): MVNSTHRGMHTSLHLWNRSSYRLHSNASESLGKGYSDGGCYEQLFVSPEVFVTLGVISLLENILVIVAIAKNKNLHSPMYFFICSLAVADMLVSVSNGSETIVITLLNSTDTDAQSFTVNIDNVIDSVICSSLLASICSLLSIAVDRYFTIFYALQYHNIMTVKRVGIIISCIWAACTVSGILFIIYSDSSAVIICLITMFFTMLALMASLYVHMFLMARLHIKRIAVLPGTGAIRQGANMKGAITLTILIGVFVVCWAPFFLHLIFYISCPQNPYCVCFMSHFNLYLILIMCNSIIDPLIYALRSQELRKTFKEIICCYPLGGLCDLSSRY
Chain of Melanocortin receptor 5 (P33032 whole entry): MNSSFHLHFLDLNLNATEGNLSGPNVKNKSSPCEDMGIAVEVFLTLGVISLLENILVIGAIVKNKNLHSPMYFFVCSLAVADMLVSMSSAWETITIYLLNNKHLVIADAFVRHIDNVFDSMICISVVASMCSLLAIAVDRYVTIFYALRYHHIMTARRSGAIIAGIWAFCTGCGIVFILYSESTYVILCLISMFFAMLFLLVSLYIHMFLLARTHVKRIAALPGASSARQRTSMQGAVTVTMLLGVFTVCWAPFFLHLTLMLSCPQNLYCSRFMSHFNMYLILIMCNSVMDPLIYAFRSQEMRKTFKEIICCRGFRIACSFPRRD
Chain of Melanocortin receptor 3 (P41968 whole entry): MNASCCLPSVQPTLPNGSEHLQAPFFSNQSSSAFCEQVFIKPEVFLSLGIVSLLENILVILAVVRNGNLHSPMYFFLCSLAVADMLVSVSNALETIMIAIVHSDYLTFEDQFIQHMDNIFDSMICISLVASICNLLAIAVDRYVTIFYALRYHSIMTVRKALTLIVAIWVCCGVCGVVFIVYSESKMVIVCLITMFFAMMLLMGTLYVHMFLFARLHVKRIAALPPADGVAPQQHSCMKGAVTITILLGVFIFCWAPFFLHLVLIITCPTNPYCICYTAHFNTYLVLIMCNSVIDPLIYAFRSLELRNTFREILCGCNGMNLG
Chain of Melanocyte-stimulating hormone receptor (Q01726 whole entry): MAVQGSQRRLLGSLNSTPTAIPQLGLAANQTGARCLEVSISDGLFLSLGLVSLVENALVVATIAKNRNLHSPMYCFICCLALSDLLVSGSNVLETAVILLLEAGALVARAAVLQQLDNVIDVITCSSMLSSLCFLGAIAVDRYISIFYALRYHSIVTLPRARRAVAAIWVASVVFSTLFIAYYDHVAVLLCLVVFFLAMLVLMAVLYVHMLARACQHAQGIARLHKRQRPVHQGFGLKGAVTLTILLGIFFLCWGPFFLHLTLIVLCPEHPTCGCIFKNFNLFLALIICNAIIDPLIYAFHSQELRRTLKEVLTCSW

Work on CN(C)C(=O)Nc1ccccc1N1CCN(C(=O)[C@@H](Cc2ccc(Cl)cc2)NC(=O)[C@H]2Cc3ccccc3CN2)CC1 yielded a Fold stimulation (Melanocortin receptor 4 [1]) of 7%.
For O=C(NCc1ccccc1)Nc1ccccc1N1CCN(C(=O)[C@@H](Cc2ccc(Cl)cc2)NC(=O)[C@H]2Cc3ccccc3CN2)CC1, the EC50 (Melanocortin receptor 4 [2]) was 1000 nM and the Stimulation (Melanocortin receptor 4 [3]) was 62%.
O=C(N[C@H](Cc1ccc(Cl)cc1)C(=O)N1CCN(c2c(Cn3cncn3)ccc3ccccc23)CC1)[C@H]1Cc2ccccc2CN1 was tested, and the EC50 (Melanocortin receptor 4 [2]) was 170 nM and the Stimulation (Melanocortin receptor 4 [3]) was 100%.
For COC(=O)C(=O)Nc1ccccc1N1CCN(C(=O)[C@@H](Cc2ccc(Cl)cc2)NC(=O)[C@H]2Cc3ccccc3CN2)CC1, the EC50 (Melanocortin receptor 4 [2]) was 1600 nM and the Stimulation (Melanocortin receptor 4 [3]) was 55%.
In the case of CC(C)S(=O)(=O)Nc1ccccc1N1CCN(C(=O)[C@@H](Cc2ccc(Cl)cc2)NC(=O)[C@H]2Cc3ccccc3CN2)CC1, the EC50 (Melanocortin receptor 4 [2]) is reported as 440 nM and the Stimulation (Melanocortin receptor 4 [3]) is reported as 85%.
O=C(Nc1ccccc1N1CCN(C(=O)[C@@H](Cc2ccc(Cl)cc2)NC(=O)[C@H]2Cc3ccccc3CN2)CC1)c1cccnc1 gave an EC50 (Melanocortin receptor 4 [2]) of 1100 nM and a Stimulation (Melanocortin receptor 4 [3]) of 83%.
With CCOC(=O)NC(=O)Nc1ccccc1N1CCN(C(=O)[C@@H](Cc2ccc(Cl)cc2)NC(=O)[C@H]2Cc3ccccc3CN2)CC1 the EC50 (Melanocortin receptor 4 [2]) was 650 nM and the Stimulation (Melanocortin receptor 4 [3]) was 24%.
For CS(=O)(=O)Nc1ccccc1N1CCN(C(=O)[C@@H](Cc2ccc(Cl)cc2)NC(=O)[C@H]2Cc3ccccc3CN2)CC1, the EC50 (Melanocortin receptor 4 [2]) was 380 nM and the Stimulation (Melanocortin receptor 4 [3]) was 100%.
Work on CCC(C)N(Cc1ccccc1N1CCN(C(=O)[C@@H](Cc2ccc(Cl)cc2)NC(=O)[C@H]2Cc3ccccc3CN2)CC1)S(C)(=O)=O (stereo partly drawn) yielded an EC50 (Melanocortin receptor 4 [2]) of 1000 nM and a Stimulation (Melanocortin receptor 4 [3]) of 100%.
For CCC(CC)N(Cc1ccccc1N1CCN(C(=O)[C@@H](Cc2ccc(Cl)cc2)NC(=O)[C@H]2Cc3ccccc3CN2)CC1)S(C)(=O)=O, the EC50 (Melanocortin receptor 4 [2]) was 2200 nM and the Stimulation (Melanocortin receptor 4 [3]) was 100%.
In the case of O=C(Nc1ccccc1N1CCN(C(=O)[C@@H](Cc2ccc(Cl)cc2)NC(=O)[C@H]2Cc3ccccc3CN2)CC1)c1ccncc1, the Fold stimulation (Melanocortin receptor 4 [1]) is reported as 30%.
With CC(C)CN(Cc1ccccc1N1CCN(C(=O)[C@@H](Cc2ccc(Cl)cc2)NC(=O)[C@H]2Cc3ccccc3CN2)CC1)S(C)(=O)=O the EC50 (Melanocortin receptor 4 [2]) was 380 nM and the Stimulation (Melanocortin receptor 4 [3]) was 100%.
CCN(Cc1ccccc1N1CCN(C(=O)[C@@H](Cc2ccc(Cl)cc2)NC(=O)[C@H]2Cc3ccccc3CN2)CC1)S(C)(=O)=O gave an EC50 (Melanocortin receptor 4 [2]) of 690 nM and a Stimulation (Melanocortin receptor 4 [3]) of 100%.
With O=C(N[C@H](Cc1ccc(Cl)cc1)C(=O)N1CCN(c2ccccc2Cn2cncn2)CC1)[C@H]1Cc2ccccc2CN1 the EC50 (Melanocortin receptor 4 [2]) was 80 nM, the EC50 (Melanocortin receptor 5) was greater than 3000 nM and the EC50 (Melanocortin receptor 3) was greater than 3000 nM. The EC50 [4] was greater than 3000 nM, the EC50 (Melanocortin receptor 4 [5]) was 59 nM and the EC50 [6] was greater than 10000 nM. For the same compound, the Stimulation (Melanocortin receptor 4 [3]) was 100%.
COc1ccc(Cn2cncn2)c(N2CCN(C(=O)[C@@H](Cc3ccc(Cl)cc3)NC(=O)[C@H]3Cc4ccccc4CN3)CC2)c1 gave an EC50 (Melanocortin receptor 4 [2]) of 110 nM and a Stimulation (Melanocortin receptor 4 [3]) of 100%.
O=C(Nc1ccccc1N1CCN(C(=O)[C@@H](Cc2ccc(Cl)cc2)NC(=O)[C@H]2Cc3ccccc3CN2)CC1)C1CC1 gave a Fold stimulation (Melanocortin receptor 4 [1]) of 21%.
Compound O=C(N[C@H](Cc1ccc(Cl)cc1)C(=O)N1CCN(c2ccccc2NS(=O)(=O)C(F)(F)F)CC1)[C@H]1Cc2ccccc2CN1 has an EC50 (Melanocortin receptor 4 [2]) of 4400 nM and a Stimulation (Melanocortin receptor 4 [3]) of 34%.
CCOC(=O)CNC(=O)Nc1ccccc1N1CCN(C(=O)[C@@H](Cc2ccc(Cl)cc2)NC(=O)[C@H]2Cc3ccccc3CN2)CC1 was tested, and the EC50 (Melanocortin receptor 4 [2]) was 2100 nM and the Stimulation (Melanocortin receptor 4 [3]) was 68%.
O=C(N[C@H](Cc1ccc(Cl)cc1)C(=O)N1CCN(c2ccc(C(F)(F)F)cc2Cn2cncn2)CC1)[C@H]1Cc2ccccc2CN1 gave an EC50 (Melanocortin receptor 4 [2]) of 680 nM and a Stimulation (Melanocortin receptor 4 [3]) of 100%.
COCC(=O)Nc1ccccc1N1CCN(C(=O)[C@@H](Cc2ccc(Cl)cc2)NC(=O)[C@H]2Cc3ccccc3CN2)CC1 was tested, and the EC50 (Melanocortin receptor 4 [2]) was 600 nM and the Stimulation (Melanocortin receptor 4 [3]) was 34%.
Compound CN(c1ccccc1N1CCN(C(=O)[C@@H](Cc2ccc(Cl)cc2)NC(=O)[C@H]2Cc3ccccc3CN2)CC1)S(C)(=O)=O has an EC50 (Melanocortin receptor 4 [2]) of 520 nM and a Stimulation (Melanocortin receptor 4 [3]) of 100%.
With O=C(N[C@H](Cc1ccc(Cl)cc1)C(=O)N1CCC(Cn2cncn2)(C2CCCCC2)CC1)[C@H]1Cc2ccccc2CN1 the EC50 (Melanocortin receptor 5) was 2700 nM, the EC50 (Melanocortin receptor 4 [5]) was 7.6 nM and the EC50 [6] was greater than 10000 nM. It also gave a Stimulation (Melanocortin receptor 4 [3]) of 100%.
CS(=O)(=O)N1CC2(CCN(C(=O)[C@@H](Cc3ccc(Cl)cc3)NC(=O)[C@H]3Cc4ccccc4CN3)CC2)c2ccccc21 was tested, and the EC50 (Melanocortin receptor 4 [2]) was 190 nM and the Stimulation (Melanocortin receptor 4 [3]) was 100%.
CC(C)(C)CN(Cc1ccccc1N1CCN(C(=O)[C@@H](Cc2ccc(Cl)cc2)NC(=O)[C@H]2Cc3ccccc3CN2)CC1)S(C)(=O)=O showed an EC50 (Melanocortin receptor 4 [2]) of 2400 nM and a Stimulation (Melanocortin receptor 4 [3]) of 100%.
Compound O=C(N[C@H](Cc1ccc(Cl)cc1)C(=O)N1CCN(c2cccc(Cl)c2Cn2cncn2)CC1)[C@H]1Cc2ccccc2CN1 has an EC50 (Melanocortin receptor 4 [2]) of 470 nM and a Stimulation (Melanocortin receptor 4 [3]) of 70%.
CC(=O)Nc1ccccc1N1CCN(C(=O)[C@@H](Cc2ccc(Cl)cc2)NC(=O)[C@H]2Cc3ccccc3CN2)CC1 gave an EC50 (Melanocortin receptor 4 [2]) of 1900 nM and a Stimulation (Melanocortin receptor 4 [3]) of 64%.
Work on O=C(N[C@H](Cc1ccc(Cl)cc1)C(=O)N1CCN(c2ccccc2Cn2cnnc2)CC1)[C@H]1Cc2ccccc2CN1 yielded an EC50 (Melanocortin receptor 4 [2]) of 24 nM, an EC50 (Melanocortin receptor 5) greater than 3000 nM and an EC50 (Melanocortin receptor 3) greater than 3000 nM. For the same compound, the EC50 [4] was greater than 3000 nM, the EC50 (Melanocortin receptor 4 [5]) was 38 nM and the EC50 [6] was greater than 10000 nM. For the same compound, the Stimulation (Melanocortin receptor 4 [3]) was 100%.

From ChEMBL document CHEMBL1145880, “Aryl piperazine melanocortin MC4 receptor agonists” (Bioorg Med Chem Lett, 2003)
